Source: ChEMBL document CHEMBL1833830, “1-[2-(2-Benzoyl- and 2-benzylphenoxy)ethyl]uracils as potent anti-HIV-1 agents” (Bioorg Med Chem, 2011)
Values after ≈ are worked out from the molar mass of the structure shown. Active and inactive are the calls of the source. The calls are words filed in the database; no cut-off is given here.

How the values were obtained:
Human alphaherpesvirus 1 = experiment: Antiviral activity against HSV1 assessed as inhibition of viral replication; format: functional, organism-based
Punta Toro virus = experiment: Antiviral activity against Punta Toro virus assessed as inhibition of viral replication; format: functional, organism-based
[1] = test system: Mammalian orthoreovirus 1; experiment: Antiviral activity against Reovirus 1 assessed as inhibition of viral replication; format: functional, organism-based
[2] = test system: Human immunodeficiency virus 1; experiment: Antiviral activity against HIV1 3B infected in human CEM cells assessed as inhibition of virus-induced giant cell formation after 4 days by microscopic analysis; format: functional, organism-based; settings: Human immunodeficiency virus 1, 3B, CCRF-CEM, 96 h
Rift Valley fever virus = experiment: Antiviral activity against Rift Valley fever virus assessed as inhibition of viral replication; format: functional, organism-based
Coxsackievirus B4 = experiment: Antiviral activity against Coxsackievirus B4 assessed as inhibition of viral replication; format: functional, organism-based
[3] = test system: Human immunodeficiency virus 2; experiment: Antiviral activity against Human immunodeficiency virus type 2 ROD infected in human CEM cells assessed as inhibition of virus-induced giant cell formation after 4 days by microscopic analysis; format: functional, organism-based; settings: ISOLATE ROD, CCRF-CEM
West Nile virus = experiment: Antiviral activity against West Nile virus assessed as inhibition of viral replication; format: functional, organism-based
[4] = test system: Human immunodeficiency virus 2; experiment: Antiviral activity against Human immunodeficiency virus type 2 ROD infected in human MT4 cells assessed as inhibition of virus-induced cytopathic effect after 4 days by MTT assay; format: functional, organism-based; settings: ISOLATE ROD
[5] = target: Human immunodeficiency virus type 1 reverse transcriptase (Human immunodeficiency virus 1, UniProt Q72547); experiment: Inhibition of RNA-dependent DNA polymerase activity of HIV1 reverse transcriptase p66/p51 heterodimer using [8-3H]dGTP as substrate after 30 mins by liquid scintillation counting
[6] = test system: Vesicular stomatitis virus; experiment: Antiviral activity against Vesicular stomatitis virus assessed as inhibition of viral replication; format: functional, organism-based
Vaccinia virus = experiment: Antiviral activity against Vaccinia virus assessed as inhibition of viral replication; format: functional, organism-based; settings: Orthopoxvirus vaccinia
[7] = Inhibition of DNA-dependent DNA polymerase activity of HIV1 reverse transcriptase p66/p66 homodimer using activated DNA and [alpha-32P]dATP after 30 mins by liquid scintillation counting; design: species or system Human immunodeficiency virus 1
[8] = Cytotoxicity against human CEM cells after 4 days by MTT assay; format: cell-based; settings: CEM cells (CCRF-CEM)
Yellow fever virus = experiment: Antiviral activity against Yellow fever virus assessed as inhibition of viral replication; format: functional, organism-based
Feline coronavirus = experiment: Antiviral activity against Feline coronavirus assessed as inhibition of viral replication; format: functional, organism-based
[9] = Selectivity index, ratio of CC50 for human CEM cells to EC50 for HIV1 3B; format: toxicity, cell-based, CCRF-CEM; settings: read-out: Ratio CC50/EC50
[10] = test system: Respiratory syncytial virus; experiment: Antiviral activity against Respiratory syncytial virus assessed as inhibition of viral replication; format: functional, organism-based
Human alphaherpesvirus 2 = experiment: Antiviral activity against HSV-2 assessed as inhibition of viral replication; format: functional, organism-based
Human respirovirus 3 = experiment: Antiviral activity against Parainfluenza 3 virus assessed as inhibition of viral replication; format: functional, organism-based
Sindbis virus = experiment: Antiviral activity against Sindbis virus assessed as inhibition of viral replication; format: functional, organism-based
Dengue virus = experiment: Antiviral activity against Dengue virus assessed as inhibition of viral replication; format: functional, organism-based
in vitro [11] = settings: human, MT4 cells
[12] = test system: Human immunodeficiency virus 1; format: functional, organism-based; settings: Human immunodeficiency virus 1, 3B, MT4, 96 h
[13] = Cytotoxicity against human MT4 cells after 4 days by MTT assay; format: cell-based
[14] = Solubility of the compound in 0.1% DMSO after overnight incubation by UV spectrometric analysis; format: physicochemical
[15] = test system: Human immunodeficiency virus 1; experiment: microbe, parasite or virus in culture; settings: Human immunodeficiency virus 1, 3B, MT4, 96 h
in vitro [16] = settings: human, MT4 cells; remark: listed apart in the source
[17] = Solubility of the compound in 10% DMSO after overnight incubation by UV spectrometric analysis; format: physicochemical

## Cc1cc(C)cc(C(O)c2cc(Cl)ccc2OCCn2ccc(=O)[nH]c2=O)c1 (configuration not stated)
Human alphaherpesvirus 1
  Activity: inactive
Punta Toro virus
  Activity: inactive
[1]
  Activity: inactive
[2]
  EC50: ≥ 20000 nM
Rift Valley fever virus
  Activity: inactive
Coxsackievirus B4
  Activity: inactive
[3]
  Activity: inactive
West Nile virus
  Activity: inactive
[4]
  Activity: inactive
[5]
  Ki: > 249000 nM
[6]
  Activity: inactive
Vaccinia virus
  Activity: inactive
[7]
  Ki: > 50000 nM
[8]
  CC50 at 96 h: > 20000 nM
Yellow fever virus
  Activity: inactive
Feline coronavirus
  Activity: inactive
[9]
  selectivity ratio: > 1
[10]
  Activity: inactive
Human alphaherpesvirus 2
  Activity: inactive
Human respirovirus 3
  Activity: inactive
Sindbis virus
  Activity: inactive
Dengue virus
  Activity: inactive

## O=C(c1cc(Cl)cc(Cl)c1)c1cc(Br)ccc1OCCn1ccc(=O)[nH]c1=O
Human alphaherpesvirus 1
  Activity: inactive
In vitro [11]
  selectivity ratio: > 15200
Punta Toro virus
  Activity: inactive
[1]
  Activity: inactive
Rift Valley fever virus
  Activity: inactive
[12]
  EC50: 24800 nM
[13]
  CC50 at 96 h: > 258000 nM
Coxsackievirus B4
  Activity: inactive
[3]
  Activity: inactive
West Nile virus
  Activity: inactive
[4]
  Activity: inactive
[5]
  Ki: 160 nM
[6]
  Activity: inactive
Vaccinia virus
  Activity: inactive
[14]
  solubility: 0.2 µM (≈ 0.0968 µg/mL)
[15]
  EC50: 17 nM
[7]
  Ki: 690 nM
Yellow fever virus
  Activity: inactive
Feline coronavirus
  Activity: inactive
[10]
  Activity: inactive
In vitro [16]
  selectivity ratio: > 10
Human alphaherpesvirus 2
  Activity: inactive
[17]
  solubility: 1.5 µM (≈ 0.726 µg/mL)
Human respirovirus 3
  Activity: inactive
Sindbis virus
  Activity: inactive
Dengue virus
  Activity: inactive

## O=C(c1cc(F)cc(F)c1)c1cc(Cl)ccc1OCCn1ccc(=O)[nH]c1=O
Human alphaherpesvirus 1
  Activity: inactive
In vitro [11]
  selectivity ratio: > 11400
Punta Toro virus
  Activity: inactive
[1]
  Activity: inactive
Rift Valley fever virus
  Activity: inactive
[12]
  EC50: > 307000 nM
[13]
  CC50 at 96 h: > 307000 nM
Coxsackievirus B4
  Activity: inactive
[3]
  Activity: inactive
West Nile virus
  Activity: inactive
[4]
  Activity: inactive
[5]
  Ki: 360 nM
[6]
  Activity: inactive
Vaccinia virus
  Activity: inactive
[14]
  solubility: 7.3 µM (≈ 2.97 µg/mL)
[15]
  EC50: 27 nM
[7]
  Ki: 770 nM
Yellow fever virus
  Activity: inactive
Feline coronavirus
  Activity: inactive
[10]
  Activity: inactive
In vitro [16]
  selectivity ratio: 1
Human alphaherpesvirus 2
  Activity: inactive
[17]
  solubility: 17.6 µM (≈ 7.16 µg/mL)
Human respirovirus 3
  Activity: inactive
Sindbis virus
  Activity: inactive
Dengue virus
  Activity: inactive

## O=C(c1ccccc1)c1cc(Cl)ccc1OCCn1ccc(=O)[nH]c1=O
Human alphaherpesvirus 1
  Activity: inactive
In vitro [11]
  selectivity ratio: > 3790
Punta Toro virus
  Activity: inactive
[1]
  Activity: inactive
Rift Valley fever virus
  Activity: inactive
[12]
  EC50: > 337000 nM
[13]
  CC50 at 96 h: > 337000 nM
Coxsackievirus B4
  Activity: inactive
[3]
  Activity: inactive
West Nile virus
  Activity: inactive
[4]
  Activity: inactive
[5]
  Ki: 650 nM
[6]
  Activity: inactive
Vaccinia virus
  Activity: inactive
[15]
  EC50: 89 nM
[7]
  Ki: 980 nM
Yellow fever virus
  Activity: inactive
Feline coronavirus
  Activity: inactive
[10]
  Activity: inactive
In vitro [16]
  selectivity ratio: 1
Human alphaherpesvirus 2
  Activity: inactive
Human respirovirus 3
  Activity: inactive
Sindbis virus
  Activity: inactive
Dengue virus
  Activity: inactive

## Cc1cc(C)cc(C(=O)c2cc(Br)ccc2OCCn2ccc(=O)[nH]c2=O)c1
Human alphaherpesvirus 1
  Activity: inactive
In vitro [11]
  selectivity ratio: > 12300
Punta Toro virus
  Activity: inactive
[1]
  Activity: inactive
Rift Valley fever virus
  Activity: inactive
[12]
  EC50: > 282000 nM
[13]
  CC50 at 96 h: > 282000 nM
Coxsackievirus B4
  Activity: inactive
[3]
  Activity: inactive
West Nile virus
  Activity: inactive
[4]
  Activity: inactive
[5]
  Ki: 1700 nM
[6]
  Activity: inactive
Vaccinia virus
  Activity: inactive
[14]
  solubility: 1.8 µM (≈ 0.798 µg/mL)
[15]
  EC50: 23 nM
[7]
  Ki: 770 nM
Yellow fever virus
  Activity: inactive
Feline coronavirus
  Activity: inactive
[10]
  Activity: inactive
In vitro [16]
  selectivity ratio: 1
Human alphaherpesvirus 2
  Activity: inactive
[17]
  solubility: 6.6 µM (≈ 2.93 µg/mL)
Human respirovirus 3
  Activity: inactive
Sindbis virus
  Activity: inactive
Dengue virus
  Activity: inactive

## Cc1cc(C)cc(C(=O)c2cc(Cl)ccc2OCCCn2ccc(=O)[nH]c2=O)c1
Human alphaherpesvirus 1
  Activity: inactive
Punta Toro virus
  Activity: inactive
[1]
  Activity: inactive
[2]
  EC50: 5800 nM
Rift Valley fever virus
  Activity: inactive
Coxsackievirus B4
  Activity: inactive
[3]
  Activity: inactive
West Nile virus
  Activity: inactive
[4]
  Activity: inactive
[5]
  Ki: > 242000 nM
[6]
  Activity: inactive
Vaccinia virus
  Activity: inactive
[7]
  Ki: > 50000 nM
[8]
  CC50 at 96 h: > 20000 nM
Yellow fever virus
  Activity: inactive
Feline coronavirus
  Activity: inactive
[9]
  selectivity ratio: > 3.45
[10]
  Activity: inactive
Human alphaherpesvirus 2
  Activity: inactive
Human respirovirus 3
  Activity: inactive
Sindbis virus
  Activity: inactive
Dengue virus
  Activity: inactive

## Cc1cc(C)cc(C(=O)c2cc(C)ccc2OCCn2ccc(=O)[nH]c2=O)c1
Human alphaherpesvirus 1
  Activity: inactive
In vitro [11]
  selectivity ratio: 3080
Punta Toro virus
  Activity: inactive
[1]
  Activity: inactive
Rift Valley fever virus
  Activity: inactive
[12]
  EC50: > 179000 nM
[13]
  CC50 at 96 h: 179000 nM
Coxsackievirus B4
  Activity: inactive
[3]
  Activity: inactive
West Nile virus
  Activity: inactive
[4]
  Activity: inactive
[5]
  Ki: 2000 nM
[6]
  Activity: inactive
Vaccinia virus
  Activity: inactive
[14]
  solubility: 28.9 µM (≈ 10.9 µg/mL)
[15]
  EC50: 58 nM
[7]
  Ki: 2400 nM
Yellow fever virus
  Activity: inactive
Feline coronavirus
  Activity: inactive
[10]
  Activity: inactive
In vitro [16]
  selectivity ratio: < 1
Human alphaherpesvirus 2
  Activity: inactive
[17]
  solubility: 58.5 µM (≈ 22.1 µg/mL)
Human respirovirus 3
  Activity: inactive
Sindbis virus
  Activity: inactive
Dengue virus
  Activity: inactive
